# Experimental data taken from patent US20220119355A1, “SATURATED-RING-FUSED DIHYDROPYRIMIDINONE OR DIHYDROTRIAZINONE COMPOUNDS AND PHARMACEUTICAL USE THEREOF” (Japan Tobacco Inc., priority 2018, published 2022).
# What was measured:
# human RORγ = target: T1, human RORγ (Homo sapiens, UniProt P51449); test: In-vitro reporter gene assay for inhibitory activity against RORγ transcription, Test Method A (GAL4-hRORγ LBD / pG5-Luc in CHO cells); format: cell-based; conditions: luciferase reporter, 2 days
# T1 construct: from Ser253 to Lys518 for human RORγ; expressed in transfected cells; host or cells: CHO cells (transient co-transfection with pG5-Luc)
# T1 sequence (P51449 253-518): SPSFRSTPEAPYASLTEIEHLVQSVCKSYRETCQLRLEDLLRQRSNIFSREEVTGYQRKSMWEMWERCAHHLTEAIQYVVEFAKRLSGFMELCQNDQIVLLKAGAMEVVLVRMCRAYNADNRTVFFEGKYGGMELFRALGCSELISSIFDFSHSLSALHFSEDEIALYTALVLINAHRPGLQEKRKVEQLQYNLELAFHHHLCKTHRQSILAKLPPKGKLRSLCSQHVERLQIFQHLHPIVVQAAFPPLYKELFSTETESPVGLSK
# Protocol: (§1) In-Vitro Assay for Inhibitory Activity Against RORγ Transcription
# (§2) Inhibitory activity against RORγ transcription was assessed for test compounds by either of the following Test Method A or B of reporter gene assay.
# (§3) cDNAs encoding human and mouse RORγ ligand binding domains (LBD) were obtained based on the sequences of human RORγ (Genbank registered number NM_005060.3) and mouse RORγ (Genbank registered number NM_011281.2) (LBD sequences: from Ser253 to Lys518 for human RORγ; from Ile251 to Lys516 for mouse RORγ).
# (§4) LBD cDNAs of human and mouse RORγ were inserted into pFA-CMV vector (Stratagene), which expresses GAL4-DNA binding domain fusion protein. The resulting plasmids are hereinafter referred to as GAL4-hRORγ plasmid and GAL4-mRORγ plasmid, respectively.
# (§5) GAL4-hRORγ plasmid or GAL4-mRORγ plasmid was transiently co-transfected into Chinese hamster ovary cells (CHO cells) with pG5-Luc (Promega), reporter plasmid expressing firefly luciferase in a GAL4-dependent manner.
# (§6) TransIT (Registered trademark) CHO Transfection Kit (Mirus) was used to co-transfect CHO cells with the plasmids. One day prior to the assay, CHO cells were suspended in HAM F-12 Nutrient medium containing 10% (v/v) fetal bovine serum and seeded at 6×10^6 cells per 175 cm^2 cell culture flask each. 54 μL of TransIT (Registered trademark) CHO reagent was added into a 15 mL tube containing 1.16 mL of HAM F-12 Nutrient medium without fetal bovine serum, and then mixed and incubated at room temperature for 10 minutes. 36 μL of a plasmid solution containing 400 ng of GAL4-hRORγ plasmid, 9000 ng of pG5-Luc plasmid, and 8600 ng of pcDNA3 plasmid were added into the tube and mixed gently. In the case of mouse assay, a plasmid solution containing 250 ng of GAL4-mRORγ plasmid, 9000 ng of pG5-Luc plasmid, and 8750 ng of pcDNA3 plasmid was added, instead. The mixture was incubated at room temperature for 10 minutes. 9 μL each of CHO Mojo Reagent were then added into each tube and mixed gently. The mixture was incubated at room temperature for 10 minutes. The resulting transfection reagent was applied to the cell culture. After incubation at 37° C., 5% CO2 for 4 hours, the plasmid-transfected CHO cells were harvested by trypsin treatment. The collected cells were resuspended in culture medium and plated into a 384-well-white plate at 8,000 cells/50 μL/well. The plate was let stand at room temperature for 1 hour and then further incubated at 37° C., 5% CO2 for 3 hours. A test compound was dissolved in DMSO to obtain a concentration of 10 mM. Each solution was serially diluted with DMSO and further diluted with culture medium just before use. The test compound solutions were added. to the cells in the plate at 8 different concentrations. The final concentration of DMSO was 0.2% (v/v). After the addition of test compound, the cells were incubated at […], 5% CO2 for 2 days.
# (§7) RORγ transcriptional activity was detected as the intracellular luciferase activity using SteadyLite HTS Reporter Gene Assay System (Perkin Elmer). SteadyLite Reagent was diluted five-fold with Extension buffer (10 mM Tricine, 0.2% (w/v) bovine serum albumin, 0.02% (v/v) Tween-20) to obtain a luciferase substrate solution. After the measurement of the cell viability with Resazurin, the medium was removed in the plate and the luciferase substrate solution was added thereto. After the incubation at room temperature for 10 minutes, luminescence of each well was measured with a microplate reader. The luciferase activity derived from the luminescence count in a vehicle-control well treated with 0.2% DMSO alone was defined as 100%, and the luciferase activity after treatment with the test compound was calculated as a percentage, %-of-control, based on the value of the vehicle-control. An EC50 value of the test compound was calculated by curve fitting with GraphPad Prism. The luminescence counts at the concentration of test compound where cytotoxicity was observed were excluded from data analysis. […]
# mouse RORγ = target: T2, mouse RORγ (Mus musculus, UniProt P51450); test: In-vitro reporter gene assay for inhibitory activity against RORγ transcription, Test Method A (GAL4-mRORγ LBD / pG5-Luc in CHO cells); format: cell-based; conditions: luciferase reporter, 2 days
# T2 construct: from Ile251 to Lys516 for mouse RORγ; expressed in transfected cells; host or cells: CHO cells (transient co-transfection with pG5-Luc)
# T2 sequence (P51450 251-516): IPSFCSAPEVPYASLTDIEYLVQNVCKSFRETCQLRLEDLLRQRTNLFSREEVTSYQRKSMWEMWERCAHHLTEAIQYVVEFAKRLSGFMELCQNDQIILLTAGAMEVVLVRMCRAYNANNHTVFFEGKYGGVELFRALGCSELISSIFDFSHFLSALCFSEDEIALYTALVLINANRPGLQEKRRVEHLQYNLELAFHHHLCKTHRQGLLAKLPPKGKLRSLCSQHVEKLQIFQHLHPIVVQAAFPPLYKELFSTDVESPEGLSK
# Protocol: as §1, §2, §3, §4, §5, §6, §7
SMILES,EC50 (human RORγ) [µM],EC50 (mouse RORγ) [µM]
"CC1CCC[C@]2(c3ccc(CCC(C)(C)C)c(Cl)c3)NC(=O)N(C34CC(C(=O)O)(C3)C4)C=C12 (single isomer, unassigned) [Example 78]",2.2,> 3.2
"CC1CCC[C@@]2(c3ccc(CCC(C)(C)C)c(Cl)c3)NC(=O)N(C34CC(C(=O)O)(C3)C4)C=C12 (single isomer, unassigned) [Example 79]",0.018,0.022
"CC1CC[C@]2(c3ccc(CCC(C)(C)C)c(Cl)c3)NC(=O)N(CCC(=O)O)C=C2C1 (single isomer, unassigned) [Example 80]",> 10,> 10
"CC1CC[C@@]2(c3ccc(CCC(C)(C)C)c(Cl)c3)NC(=O)N(CCC(=O)O)C=C2C1 (single isomer, unassigned) [Example 81]",0.013,0.019
"CC(C)(C)CCc1ccc([C@]23CCC(C)(C)CC2=CN(CCC(=O)O)C(=O)N3)cc1Cl (single isomer, unassigned) [Example 82]",9.87,9.79
"CC(C)(C)CCc1ccc([C@@]23CCC(C)(C)CC2=CN(CCC(=O)O)C(=O)N3)cc1Cl (single isomer, unassigned) [Example 83]",0.014,0.018
"COCC1CC[C@]2(c3ccc(CCC(C)(C)C)c(Cl)c3)NC(=O)N(C34CC(C(=O)O)(C3)C4)C=C2C1 (single isomer, unassigned) [Example 84]",> 10,> 10
"COCC1CC[C@@]2(c3ccc(CCC(C)(C)C)c(Cl)c3)NC(=O)N(C34CC(C(=O)O)(C3)C4)C=C2C1 (single isomer, unassigned) [Example 85]",0.033,0.073
CC(C)(C)CCc1ccc([C@]23CCCCC2=CN(C24CC(C(=O)O)(C2)C4)C(=O)N3)cc1Cl [Example 53],> 3.2,2.73
"CC(C)(C)CCc1ccc([C@@]23CCCCC2=CN(C24CC(C(=O)O)(C2)C4)C(=O)N3)cc1Cl [Example 54, 3-{(S)-8a-[3-Chloro-4-(3,3-dimethyl-butyl)phenyl]-2-oxo-1,5,6,7,8,8a-hexahydro-2H-quinazolin-3-yl}bicyclo[1.1.1]pentane-1-carboxylic acid]",0.064,0.035
